Values quoted from earlier work as cited in the PKSmart pharmacokinetics tables (Seal et al. 2025).

Assay: Lombardo, Berellini, Obach 2018, Drug Metab Dispos 46:1466, doi 10.1124/dmd.118.082966
Settings: human; for MRT / Vd / clearance / half-life: in vivo, iv; for fraction unbound: plasma

Row | Structure (SMILES) | MRT [h] | Vd [L/kg] | clearance [mL/min/kg] | half-life [h] | fraction unbound
1 | COc1ccc2[nH]cc(CCNC(C)=O)c2c1 | 1.1 | 1.1 | 16.5 | 1.1 | 0.39
2 | O=C(O)CO | 2.75 | 0.67 | 4.05 | 2.1 | 0.84
3 | Nc1nc(CC(=O)Nc2ccc(CCNC[C@H](O)c3ccccc3)cc2)cs1 | 29.3 | 23.8 | 13.6 | 50 | 0.29
4 | NC(Cc1ccc(N(CCCl)CCCl)cc1)C(=O)O (stereo not drawn) | – | – | – | – | 0.14
5 | CC(=O)Nc1ccc(C2=NNC(=O)CC2C)cc1 (stereo not drawn) | 88 | 2.38 | 0.45 | 70 | 0.4
6 | COP(=O)(c1cc(C)cc(/C=C/C#N)c1)c1c(C(N)=O)[nH]c2ccc(Cl)cc12 (stereo not drawn) | 5.5 | 0.56 | 1.71 | 4.4 | –
7 | Cn1c(CCCC(=O)O)nc2cc(N(CCCl)CCCl)ccc21 | 0.81 | 0.22 | 4.49 | 0.41 | 0.05
8 | Oc1c(C2=CC[C@@H](c3ccc(Cl)cc3)CC2)c(O)c2ccccc2c1O | 67 | 0.6 | 0.15 | 63 | 0.001
9 | Fc1ccc([C@@H]2CCNC[C@H]2COc2ccc3c(c2)OCO3)cc1 | 17 | 18 | 18 | 13 | 0.06
10 | CC[N+]1(CC)CCC(=C(c2ccccc2)c2ccccc2)[C@@H]1C | 2.5 | 1.87 | 12.5 | 2.13 | –
11 | Cn1c(COP(=O)(NCCBr)NCCBr)cnc1[N+](=O)[O-] | 0.72 | 0.64 | 14.8 | 1 | –
12 | O=C(NC1CC[C@@H](c2cccc(F)c2F)CN(CC(F)(F)F)C1=O)N1CCC(n2c(=O)[nH]c3ncccc32)CC1 (stereo partly drawn) | 2.5 | 0.86 | 5.8 | 8.2 | –
13 | CC(C)(C)NCC(O)COc1cccc2c1CC(O)C(O)C2 (stereo not drawn) | 11 | 1.9 | 2.9 | 9.2 | 0.14
14 | CC(S)C(=O)NCC(=O)O (stereo not drawn) | 15.7 | 1.39 | 1.48 | 55 | 0.45
15 | CC(=O)N(CC(O)CO)c1c(I)c(C(=O)NCC(O)CO)c(I)c(C(=O)NCC(O)CO)c1I (stereo not drawn) | 1.3 | 0.16 | 2 | 1.5 | 1
16 | CCOP(=O)(OCC)C(C)NC(=O)N(CCCl)N=O (stereo not drawn) | 0.55 | 0.62 | 18.5 | 0.38 | –
17 | CC(C)(O)c1ccccc1CC[C@@H](SCC1(CC(=O)O)CC1)c1cccc(/C=C/c2ccc3ccc(Cl)cc3n2)c1 | 3.8 | 0.15 | 0.68 | 5 | –
18 | CCC1=C[C@@H]2CN(C1)Cc1c([nH]c3ccccc13)[C@@](C(=O)OC)(c1cc3c(cc1OC)N(C)[C@H]1[C@@](O)(C(=O)OC)[C@H](OC(C)=O)[C@]4(CC)C=CCN5CC[C@]31[C@@H]54)C2 | 18 | 23 | 20 | 26 | 0.87
19 | COc1cc2nc(N(C)CCCNC(=O)C3CCCO3)nc(N)c2cc1OC (stereo not drawn) | 4.2 | 1.5 | 5.9 | 4.8 | 0.14
20 | FC(F)(F)C(F)(F)C(F)(F)F | 0.05 | 1.6 | 591 | 0.02 | –
21 | CCN1C[C@H]2CN(C)C[C@@H](C1)C2OC(=O)c1ccc(Cl)cc1 (stereo partly drawn) | 8.8 | 9 | 17 | 8.6 | –
22 | Cc1cnc(C(=O)NCCc2ccc(S(=O)(=O)NC(=O)NC3CCCCC3)cc2)cn1 | 4.8 | – | – | – | –
23 | O=C1CN=C(c2ccccn2)c2cc(Br)ccc2N1 | 28 | 0.85 | 0.51 | 21 | –
24 | C[C@H](O)C1C(=O)N2C(C(=O)O)=C(S[C@H]3CN[C@H](CNS(N)(=O)=O)C3)[C@@H](C)C12 (stereo partly drawn) | – | – | – | 1.2 | 0.92
25 | CCCCCCN1CCC(C(=O)N(C)CC)(c2ccccc2)CC1 | – | – | 24 | 3.6 | –

Row | Structure (SMILES) | MRT [h] | Vd [L/kg] | clearance [mL/min/kg] | half-life [h] | fraction unbound
26 | CC[C@]1(O)C[C@H]2CN(CCc3c([nH]c4ccccc34)[C@@](C(=O)OC)(c3cc4c(cc3OC)N(C)[C@H]3[C@@](O)(C(N)=O)[C@H](O)[C@]5(CC)C=CCN6CC[C@]43[C@@H]65)C2)C1 | 38 | 5 | 2.2 | 35 | –
27 | COc1ccc(C(=O)Nc2ccccc2CCC2CCCCN2C)cc1 (stereo not drawn) | 2.8 | 2.2 | 13 | 2.6 | –
28 | O=C1NCC2(CCN(CCc3ccccc3)CC2)O1 | 19 | 3 | 2.6 | 14 | –
29 | C=Cc1c(C)c2[nH]c1=Cc1[nH]c(c(=CCC(=O)O)c1C)=Cc1[nH]c(c(C)c1CCC(=O)OC)C=C1NC(=C3C=CC(C(=O)OC)=C(C(=O)OC)[C@@]13C)C=2 | 6.6 | 0.63 | 1.6 | 5.6 | –
30 | Oc1cc2cc(CCN3CCN(c4nsc5ccccc45)CC3)c(Cl)cc2[nH]1 | 3.3 | 1 | 5.1 | 3.1 | –
31 | CCOCCn1c(C2CCN(CCc3ccc(C(C)(C)C(=O)O)cc3)CC2)nc2ccccc21 | 3.56 | 0.61 | 2.87 | 5.16 | 0.13
32 | Cc1cc(C)c2c(c1)[C@@H](N(Cc1cc(C(F)(F)F)cc(C(F)(F)F)c1)c1nnn(C)n1)CCCN2CC1CCC(C(=O)O)CC1 (stereo partly drawn) | 36.1 | 1.82 | 0.84 | 51.9 | 0.001
33 | O=C(O)CCCc1ccc(N(CCCl)CCCl)cc1 | 1.5 | 0.26 | 2.8 | 1.1 | –
34 | CCOC(=O)C(CCc1ccccc1)NC(C)C(=O)N1CC2(CC1C(=O)O)SCCS2 (stereo not drawn) | 0.61 | 0.43 | 11.9 | 8.6 | –
35 | COc1cc2c(N)nc(N3CCN(C(=O)OCC(C)(C)O)CC3)nc2c(OC)c1OC | 3.1 | 0.18 | 0.96 | 3.1 | –
36 | O=C(O)CSc1nnc(Br)n1-c1ccc(C2CC2)c2ccccc12 | 3.33 | 0.29 | 1.43 | 5 | 0.02
37 | C=C1/C(=C\C=C2/CCC[C@]3(C)[C@@H]([C@H](C)CCCC(C)C)CC[C@@H]23)C[C@@H](O)C[C@@H]1O | – | – | 0.82 | 48.6 | –
38 | O=c1[nH]cnc2[nH]ncc12 | 0.88 | 0.58 | – | – | –
39 | CC(C)=c1nc(N(C)S(C)(=O)=O)nc(-c2ccc(F)cc2)c1=CC[C@@H](O)C[C@@H](O)CC(=O)O | 2.6 | 1.7 | 11 | 2 | –
40 | CN[C@@H]1C[C@H]2OC(C)([C@@H]1OC)n1c3ccccc3c3c4c(c5c6ccccc6n2c5c31)C(=O)N[C@@H]4O | 680 | 0.15 | 0.0037 | 790 | 0.0022
41 | CC(C)(F)CC(N[C@@H](c1ccc(-c2ccc(S(C)(=O)=O)cc2)cc1)C(F)(F)F)C(=O)NC1(C#N)CC1 (stereo partly drawn) | 147 | 1.63 | 0.19 | 108 | –
42 | C=C1/C(=C\C=C2/CCC[C@]3(C)[C@@H]([C@H](C)CCCC(C)(C)O)CC[C@@H]23)C[C@@H](O)C[C@@H]1O | 13.3 | 0.25 | 0.31 | 11 | –
43 | CCOP(=O)(OCC)[C@@H](NC(=O)[C@]1(O)[C@@H](O)[C@@]2(CC)C=CCN3CC[C@]4(c5cc([C@@]6(C(=O)OC)C[C@H]7C[N@@](CCc8c6[nH]c6ccccc86)C[C@@](O)(CC)C7)c(OC)cc5N(C)[C@@H]14)[C@@H]32)C(C)C | 22.2 | 4.67 | 3.5 | 34.3 | 0.1
44 | CC(=O)C(C#N)C(=O)Nc1ccc(C(F)(F)F)cc1 (stereo not drawn) | 367 | 0.16 | 0.007 | 350 | –
45 | CN(c1nccc(=O)[nH]1)C1CCN(c2nc3ccccc3n2Cc2ccc(F)cc2)CC1 | 6 | 0.38 | 1.03 | 9.6 | –
46 | NC(=O)c1cccc(N)c1 | 4 | 1.9 | 7.9 | 5 | –
47 | Cc1nnc(SCC2=C(C(=O)O)N3C(=O)C(NC(=O)C(O)c4ccccc4)[C@H]3SC2)s1 (stereo partly drawn) | 0.83 | 0.13 | 2.6 | 1 | –
48 | CCN(CC)Cc1cc(Nc2ccnc3cc(Cl)ccc23)ccc1O | 1.34 | 17.4 | 217 | 2.1 | –
49 | O=c1[nH]c(=O)n(C2CCCO2)cc1F (stereo not drawn) | 10.8 | 0.62 | 0.95 | 8.69 | –
50 | CC1(C)O[C@@H]2C[C@H]3[C@@H]4C[C@H](F)C5=CC(=O)C=C[C@@]5(C)[C@H]4[C@@H](O)C[C@]3(C)[C@]2(C(=O)CO)O1 | 1.89 | 1.08 | 9.5 | 1.68 | –

Row | Structure (SMILES) | MRT [h] | Vd [L/kg] | clearance [mL/min/kg] | half-life [h] | fraction unbound
51 | CNS(=O)(=O)CCc1ccc2[nH]cc(C3CCN(C)CC3)c2c1 | 6.1 | 2.4 | 6.6 | 6.6 | –
52 | CC(C1=C(CCN(C)C)Cc2ccccc21)c1ccccn1 (stereo not drawn) | 5.98 | 2.16 | 4.83 | 4.6 | –
53 | CCCC(=O)N1CCCN(c2nc(N)c3cc(OC)c(OC)cc3n2)CC1 | 2.5 | 0.72 | 4.8 | 2 | 0.06
54 | COC(=O)C(c1ccccc1)[C@H]1CCCCN1 (stereo partly drawn) | 6.62 | 2.65 | 6.67 | 8 | 0.87
55 | Nc1nc(Cl)nc2c1ncn2[C@H]1C[C@H](O)[C@@H](CO)O1 | 9.2 | 7.7 | 14 | 16 | 0.79
56 | Cc1[nH]c(=O)c(C#N)cc1-c1ccc2nccn2c1 | 0.97 | 0.64 | 11 | 1.13 | –
57 | CC(NC(CCc1ccccc1)C(=O)O)C(=O)N1CCCC1C(=O)O (stereo not drawn) | 4 | 0.38 | 1.6 | 39 | –
58 | O=C(O)c1ccc(-n2nc(-c3ccccc3O)nc2-c2ccccc2O)cc1 | 4.07 | 0.2 | 0.84 | 4.05 | 0.004
59 | CC(=N)N1CC[C@H](Oc2ccc(C(Cc3ccc4ccc(C(=N)N)cc4c3)C(=O)O)cc2)C1 (stereo partly drawn) | 14.4 | 1.55 | 1.86 | 24 | –
60 | O=C(Nc1c(Cl)cncc1Cl)c1ccc(OC(F)F)c(OCC2CC2)c1 | – | – | – | – | 0.01
61 | Nc1nc(=O)c2c([nH]1)NCC(CNc1ccc(C(=O)NC(CCC(=O)O)C(=O)O)cc1)N2C=O (stereo not drawn) | 0.8 | 0.25 | 5.8 | 1.3 | –
62 | O=C(O)C(O)Cc1ccc(O)c(O)c1 (stereo not drawn) | 0.53 | 0.38 | 17.8 | 0.37 | –
63 | O=P(O)(O)OC(Cn1cncn1)(Cn1cncn1)c1ccc(F)cc1F | 2 | 0.15 | 1.3 | 2.1 | 0.042
64 | COC1C(=O)C(C)C[C@H](C)C=CC=CC=C(C)[C@@H](OC)C[C@@H]2CC[C@@H](C)[C@@](O)(O2)C(=O)C(=O)N2CCCCC2C(=O)O[C@H]([C@H](C)C[C@@H]2CC[C@@H](OP(C)(C)=O)[C@H](OC)C2)CC(=O)C(C)=CC(C)[C@H]1O (stereo partly drawn) | 48.5 | 3.2 | 1.1 | 46.3 | –
65 | CC[C@H](C)[C@@H]([C@@H](CC(=O)N1CCC[C@H]1[C@H](OC)C(C)C(=O)NCCc1ccccc1)OC)N(C)C(=O)C(NC(=O)C(C(C)C)N(C)C)C(C)C (stereo partly drawn) | 4.6 | 0.42 | 1.6 | 5.67 | –
66 | CCN1CCN(C(=O)NC(C(=O)N[C@]2(OC)C(=O)N3C(C(=O)O)=C(CSc4nnnn4C)CS[C@@H]32)[C@H](C)O)C(=O)C1=O (stereo partly drawn) | 2.9 | 0.19 | 1.1 | 1.9 | –
67 | CS(=O)(=O)c1ccc2c(c1)N(CCCN1CCC(C(N)=O)CC1)c1ccccc1S2 | – | – | 12.1 | 4 | –
68 | O=C1NC(=O)C(c2ccccc2)(c2ccccc2)N1 | 17.6 | 0.43 | 0.37 | 16.8 | 0.13
69 | CCCCCc1cc(O)c2c(c1)OC(C)(C)[C@@H]1CCC(C)=C[C@@H]21 | 46 | 8.9 | 3.2 | 33 | 0.05
70 | CNC(=O)CC(N)C(=O)NC(C(=O)NC1C(=O)N2C(C(=O)O)C(C)(C)S[C@H]12)c1ccc(O)cc1 (stereo partly drawn) | 1.61 | 0.27 | 2.82 | 1.45 | –
71 | CCN[C@@H](C)Cc1cccc(C(F)(F)F)c1 | 18 | 11 | 11 | 14 | 0.66
72 | Cc1nccn1CC1CCc2c(c3ccccc3n2C)C1=O (stereo not drawn) | 5.2 | 1.8 | 5.8 | 3.4 | –
73 | OC[C@@H]1O[C@@H](n2cnc3c2N=CNC[C@H]3O)C[C@H]1O | 6 | 0.59 | 1.63 | 5.3 | –
74 | N/N=c1\[nH]ncc2ccccc12 | 0.29 | 1.5 | 85 | 1 | 0.12
